Measurements published in patent US11884647B2, “Compounds and methods for targeting pathogenic blood vessels” (THE REGENTS OF THE UNIVERSITY OF CALIFORNIA, priority 2019, dated 2024).

These compounds were tested on tumor endothelial cells (LL/2 lung cancer tumor) (assay: Lung LL2 ex vivo model of tumor angiogenesis). Settings: Lung LL2 ex vivo; Conc. 40 μm; drug treatment two days.
Type: cell-based, mouse
Method: This example describes a procedure to prepare a primary tumor angiogenesis model for assessing the efficacy of anti-cancer candidate agents.
1. The day before the experiment, spray all necessary tools with 70% ethanol and sterilize them under UV light overnight, including blade, dissecting and micro-dissecting scissors and […]. Place 24-well dishes at 4° C. to pre-chill plates and thaw Matrigel 24 hours before tumor dissection.
2. Spray 70% ethanol on working bench. Prepare two sterile petri dishes with 10 mL sterile PBS. Steps 3 and 4 are for mouse tumor models. For fresh human tumor, directly go to step 5.
3. Euthanize the tumor-bearing mice. Spray 70% ethanol on the mouse and remove the tumor using sterilized dissecting tools (avoid the fur). Rinse the tumor in petri dish with sterile PBS to remove ethanol and fur. Transfer the tumor to a new petri dish with PBS for dissection. Place the dish on ice.
4. Using pre-chilled sterile pipet tips to seed regular Matrigel in 24 well plates on ice. Matrigel (30 μL) is dropped in the middle of each well without touching the edge of the well (avoid introducing bubbles if possible).
5. Cut the tumor in halves using the sterile blade. Identify and isolate healthy tumor tissue that is not necrotic and is within the tumor capsule. Cut the healthy tumor tissue into small pieces. For instance, a suitable size for the tumor tissue is 0.5 mm (H)×0.5 mm (L)×0.3 mm (D) with a total volume of 0.075 mm^3.
6. Gently transfer and embed each tumor piece in the Matrigel drop in the 24-well plate. Place the embedded piece in the bottom and middle of each Matrigel drop. Keep the plate on ice all the time.
7. After seeding the tumor pieces, plates are incubated in a 37° C. cell culture incubator without medium for 10 minutes in order for the Matrigel to solidify.
8. Endothelial Growth Medium (0.5 mL) is added to each well and incubated at 37° C. with 5% CO2. Wait until the new endothelial cells have grown out of the tumor or are larger than 3 mm in diameter until treatment. This usually takes 4 days for the LL2 Lewis lung cancer model and 7 days for the CT26 colon cancer model. For human tumor models, the growth time is typically 2-3 weeks, depending on the tumor type. Media is changed every 4 days during prolonged culture. Typically, when the tumor tissue grows to 2 mm in diameter, it is good for drug testing. A size of about 3 mm in diameter can make visualization easier.
9. When the assay is ready to be analyzed for cell death (e.g., 48 hours after drug addition), prepare the dye mixture by mixing 6 μL of green dye to stain live cells (5 mg/mL Fluorescein diacetate or FDA in DMSO) with 30 μL of red dye (2.5 mg/mL Propidium iodide or PI in PBS) to stain dead cells in an Eppendorf tube. The FDA dye needs to be stored frozen in a −20° C. freezer because it has a labile ester bond.
10. Add 1 μL of the dye mixture to each well of the 24-well dish. It is usually performed one 24-well dish at a time given the amount of time needed to take pictures (the green dye is not as stable in the cells in the long term).
11. Gently rock the dish a few times to mix the dye with the media in the wells and incubate the dish at 37° C. for 10 min (too long incubation can make the green signal too intense).
12. Wash each well with 0.5 mL of sterile PBS and then add 0.5 mL of phenol red free SFM to each well. Alternatively 0.5 mL of regular Endothelial Cell Growth Media can be added to each well if this well needs to be continuously maintained after the experiment.
13. Look through all wells on an inverted microscope using the 2× objective lens to observe morphological changes.
14. Taking pictures in the red and green channels would allow not only the recording of the result but also more accurate quantitation of the result. To take pictures for all the wells, first pick a well that has robust red and green signals. […]
For CCCCOc1ccc(S(=O)(=O)c2cnc3ccc(C(=O)NC4C(O)O[C@H](CO)[C@@H](O)[C@@H]4O)cc3c2N2CCCN(C)CC2)cc1 (stereo partly drawn) [compound 193, 3-((4-butoxyphenyl)sulfonyl)-4-(4-methyl-1,4-diazepan-1-yl)-N-((4R,5S,6R)-2,4,5-trihydroxy-6-(hydroxymethyl)tetrahydro-2H-pyran-3-yl)quinoline-6-carboxamide], the Cell death was 30%. Compound CCCCOc1ccc(S(=O)(=O)c2cnc3ccc(SC)cc3c2N2CCCN(c3nc4ccc(Cl)cc4s3)CC2)cc1 [compound 356, 2-(4-(3-((4-butoxyphenyl)sulfonyl)-6-(methylthio)quinolin-4-yl)-1,4-diazepan-1-yl)-6-chlorobenzo[d]thiazole] has a Cell death of 0%. With CCCCOc1ccc(S(=O)(=O)c2cnc3ccc(SC)cc3c2N2CCCN(CC3(O)CCCC3)CC2)cc1 [compound 354, 1-((4-(3-((4-butoxyphenyl)sulfonyl)-6-(methylthio)quinolin-4-yl)-1,4-diazepan-1-yl)methyl)cyclopentan-1-ol] the Cell death was 0%. Work on CCCCOc1ccc(S(=O)(=O)c2cnc3ccc(SC)cc3c2N2CCC(N3CCCC3CO)CC2)cc1 (stereo not shown) [compound 350, (1-(1-(3-((4-butoxyphenyl)sulfonyl)-6-(methylthio)quinolin-4-yl)piperidin-4-yl)pyrrolidin-2-yl)methanol] yielded a Cell death of 20%.

Same assay, conditions: Mus musculus, Endothelial cell, 48 h, read-out: Cell death
Work on COc1ccc(S(=O)(=O)c2cnc3cc(OC)c(OC)cc3c2N2C[C@@H]3C[C@H]2CN3C)cc1 [compound 306, 6,7-dimethoxy-3-((4-methoxyphenyl)sulfonyl)-4-((1S,4S)-5-methyl-2,5-diazabicyclo[2.2.1]heptan-2-yl)quinoline] yielded a cytotoxicity at 40 µM of 40%. With CCOC(=O)c1ccc2ncc(S(=O)(=O)c3ccc(OC)cc3)c(NN3CCN(C)CC3)c2c1 [compound 225, ethyl 3-((4-methoxyphenyl)sulfonyl)-4-((4-methylpiperazin-1-yl)amino)quinoline-6-carboxylate] the cytotoxicity at 40 µM was 40%. For COc1ccc(S(=O)(=O)c2cnc3cc(OC)c(OC)cc3c2N2CCC(N3CCCC3CO)CC2)cc1 (stereo not shown) [compound 322, (1-(1-(6,7-dimethoxy-3-((4-methoxyphenyl)sulfonyl)quinolin-4-yl)piperidin-4-yl)pyrrolidin-2-yl)methanol], the cytotoxicity at 40 µM was 30%. Compound CCCCCCCOc1ccc(S(=O)(=O)c2cnc3ccc(SC)cc3c2N2CCC(N3CCN(CCO)CC3)CC2)cc1 [compound 250, 2-(4-(1-(3-((4-(heptyloxy)phenyl)sulfonyl)-6-(methylthio)quinolin-4-yl)piperidin-4-yl)piperazin-1-yl)ethan-1-ol] has a cytotoxicity at 20 µM of 90%. CCCCOc1ccc(S(=O)(=O)c2cnc3ccc([S+](C)[O-])cc3c2N2CCC(N3CCC(O)CC3)CC2)cc1 (stereo not shown) [compound 168, 1′-(3-((4-butoxyphenyl)sulfonyl)-6-(methylsulfinyl)quinolin-4-yl)-[1,4′-bipiperidin]-4-ol] gave a cytotoxicity at 20 µM of 10%. With CCc1ccc(S(=O)(=O)c2cnc3ccc(OC(F)(F)F)cc3c2-n2cccn2)cc1 [compound 109, 3-((4-ethylphenyl)sulfonyl)-4-(1H-pyrazol-1-yl)-6-(trifluoromethoxy)quinoline] the cytotoxicity at 20 µM was 0%. CCCCCCCCCCCCOc1ccc(S(=O)(=O)c2cnc3ccc([S+](C)[O-])cc3c2N2CCC(N3CCN(CCO)CC3)CC2)cc1 (stereo not shown) [compound 339, 2-(4-(1-(3-((4-(dodecyloxy)phenyl)sulfonyl)-6-(methylsulfinyl)quinolin-4-yl)piperidin-4-yl)piperazin-1-yl)ethan-1-ol] showed a cytotoxicity at 20 µM of 50%. In the case of CCCCCCCCCCCCCCOc1ccc(S(=O)(=O)c2cnc3ccc([S+](C)[O-])cc3c2N2CCC(N3CCN(CCO)CC3)CC2)cc1 (stereo not shown) [compound 344, 2-(4-(1-(6-(methylsulfinyl)-3-((4-(tetradecyloxy)phenyl)sulfonyl)quinolin-4-yl)piperidin-4-yl)piperazin-1-yl)ethan-1-ol], the cytotoxicity at 20 µM is reported as 10%. With COc1ccc(S(=O)(=O)c2cnc3cc(OC)c(OC)cc3c2N2CCC(N3CCCCC3)CC2)cc1OC [compound 122, 4-([1,4′-bipiperidin]-1′-yl)-3-((3,4-dimethoxyphenyl)sulfonyl)-6,7-dimethoxyquinoline] the cytotoxicity at 20 µM was 10%. In the case of CCCCCCCOc1ccc(S(=O)(=O)c2cnc3ccc(SC)cc3c2N2CCC(N3CCN(C)CC3)CC2)cc1 [compound 246, 3-((4-(heptyloxy)phenyl)sulfonyl)-4-(4-(4-methylpiperazin-1-yl)piperidin-1-yl)-6-(methylthio)quinoline], the cytotoxicity at 20 µM is reported as 95%. Work on COc1ccc(N2CCN(c3c(S(=O)(=O)c4ccc(OC)cc4)cnc4cc(OC)c(OC)cc34)CC2=O)cc1 [compound 318] yielded a cytotoxicity at 40 µM of 30%. Compound COc1ccc(S(=O)(=O)c2cnc3ccc(S(C)(=O)=O)cc3c2NN2CCN(C)CC2)cc1 [compound 228, 3-((4-methoxyphenyl)sulfonyl)-N-(4-methylpiperazin-1-yl)-6-(methylsulfonyl)quinolin-4-amine] has a cytotoxicity at 40 µM of 5%. Compound COc1ccc(S(=O)(=O)c2cnc3cc(OC)c(OC)cc3c2N2CCC(N3CCCC3=O)CC2)cc1 [compound 321, 1-(1-(6,7-dimethoxy-3-((4-methoxyphenyl)sulfonyl)quinolin-4-yl)piperidin-4-yl)pyrrolidin-2-one] has a cytotoxicity at 40 µM of 40%. CCOC(=O)c1ccc2ncc(S(=O)(=O)c3ccc(CC)cc3)c(-n3nnc4ccccc43)c2c1 [compound 133, ethyl 4-(1H-benzo[d][1,2,3]triazol-1-yl)-3-((4-ethylphenyl)sulfonyl)quinoline-6-carboxylate] gave a cytotoxicity at 20 µM of 10%. CCCCCCCCCCCCCCOc1ccc(S(=O)(=O)c2cnc3ccc([S+](C)[O-])cc3c2N2CCC(N3CCC(N4CCN(CCO)CC4)CC3)CC2)cc1 (stereo not shown) [compound 345, 2-(4-(1′-(6-(methylsulfinyl)-3-((4-(tetradecyloxy)phenyl)sulfonyl)quinolin-4-yl)-[1,4′-bipiperidin]-4-yl)piperazin-1-yl)ethan-1-ol] showed a cytotoxicity at 20 µM of 50%. COc1ccc(S(=O)(=O)c2cnc3ccc(C(=O)N(C)C)cc3c2N2CCCN(CC(=O)N(C)C)CC2)cc1 [compound 333, 4-(4-(2-(dimethylamino)-2-oxoethyl)-1,4-diazepan-1-yl)-3-((4-methoxyphenyl)sulfonyl)-N,N-dimethylquinoline-6-carboxamide] was tested, and the cytotoxicity at 40 µM was 0%. For CCCCOc1ccc(S(=O)(=O)c2cnc3ccc(C(=O)OCC)cc3c2N2CCCN(CCN3CCCC3)CC2)cc1 [compound 182, ethyl 3-((4-butoxyphenyl)sulfonyl)-4-(4-(2-(pyrrolidin-1-yl)ethyl)-1,4-diazepan-1-yl)quinoline-6-carboxylate], the cytotoxicity at 40 µM was 100%. In the case of CCCCOc1ccc(S(=O)(=O)c2cnc3ccc(SC)cc3c2N2CCC(N3CCCN(C)CC3)CC2)cc1 [compound 234, 3-((4-butoxyphenyl)sulfonyl)-4-(4-(4-methyl-1,4-diazepan-1-yl)piperidin-1-yl)-6-(methylthio)quinoline], the cytotoxicity at 40 µM is reported as 100%. Work on COc1ccc(S(=O)(=O)c2cnc3cc(OC)c(OC)cc3c2N2CCCN(C3CCS(=O)(=O)CC3)CC2)cc1 [compound 330, 4-(4-(6,7-dimethoxy-3-((4-methoxyphenyl)sulfonyl)quinolin-4-yl)-1,4-diazepan-1-yl)tetrahydro-2H-thiopyran 1,1-dioxide] yielded a cytotoxicity at 40 µM of 50%. With CCN(CC)CCN(CC)c1c(S(=O)(=O)c2ccc(OC)cc2)cnc2cc(OC)c(OC)cc12 [compound 296, N1-(6,7-dimethoxy-3-((4-methoxyphenyl)sulfonyl)quinolin-4-yl)-N1,N2,N2-triethylethane-1,2-diamine] the cytotoxicity at 40 µM was 20%. For CCCCOc1ccc(S(=O)(=O)c2cnc3ccc(C(=O)OCC)cc3c2N2CCC(N3CCC(CO)CC3)CC2)cc1 [compound 178, ethyl 3-((4-butoxyphenyl)sulfonyl)-4-(4-(hydroxymethyl)-[1,4′-bipiperidin]-1′-yl)quinoline-6-carboxylate], the cytotoxicity at 40 µM was 100%.
